Test results as given in patent US12116358B2, “Substituted indoles and methods of use thereof” (EPIZYME, INC., priority 2018, dated 2024).
Read-outs that look alike come from different tables or passages of the source.

Assays:
SETD2(1434-1711) = molecular target: T1, SETD2(1434-1711) (Homo sapiens, UniProt Q9BYW2); experiment: SETD2 (1434-1711) assay; assay type: biochemical; details: read-out: SETD2 (1434-1711)
T1 construct: SETD2 (1434-1711) Assay; catalogue N/A
T1 sequence (Q9BYW2 1434-1711): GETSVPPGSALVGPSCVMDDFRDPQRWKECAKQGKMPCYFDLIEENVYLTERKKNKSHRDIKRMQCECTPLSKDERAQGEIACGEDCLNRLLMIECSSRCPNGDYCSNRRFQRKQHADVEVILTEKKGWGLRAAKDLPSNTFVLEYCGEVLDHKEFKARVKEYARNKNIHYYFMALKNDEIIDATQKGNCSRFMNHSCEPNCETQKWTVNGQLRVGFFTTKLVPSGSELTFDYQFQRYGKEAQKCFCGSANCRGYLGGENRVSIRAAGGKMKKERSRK

H3K36me3 in A549 cells = experiment: In-Cell Western (ICW) assay of SETD2 inhibitors (A549 assay); assay type: cell-based, human; details: A549 cells, read-out: SETD2 A549
Procedure, shortened: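 A549 cells seeded at 4,000/well onto compound and incubated 3 days at 37° C. Methanol-fixed cells stained overnight at 4° C with anti-H3K36me3 (1:1000), then IRDye 800CW secondary with DRAQ5 DNA counterstain. Plates read by Licor imaging at 700 and 800 channels.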

Row | SMILES | IC50 (SETD2(1434-1711)) [nM] | IC50 (H3K36me3 in A549 cells) [nM] | IC50 (H3K36me3 in A549 cells; Homo sapiens) [nM]
1 | Cc1cccnc1C(CN1CCOCC1)N(C)C(=O)c1cc2cccc(C)c2[nH]1 (stereo not shown) [compound 601] | > 50000 | > 25000 | –
2 | CCOC(=O)N1CCC(N2CCC[C@@H](NC(=O)c3cc4c(F)ccc(C)c4[nH]3)C2)CC1 [compound 875] | 700 | – | > 2000
3 | Cc1ccc(F)c2cc(C(=O)Nc3cc(F)cc(N4CCC(N5CCN(CC(=O)N(C)C)CC5)C4)c3)[nH]c12 (stereo not shown) [compound 4] | 6 | 30 | –
4 | Cc1cc2ccccc2nc1C(NC(=O)c1cc2cccc(C)c2[nH]1)C1CC1 (stereo not shown) [compound 472] | 900 | 8500 | –
5 | Cc1ccc(F)c2cc(C(=O)Nc3cccc(N4CCOC(CN(C)C)C4)c3)[nH]c12 (stereo not shown) [compound 167] | 50 | – | 300
6 | Cc1ccc(F)c2cc(C(=O)Nc3cccc([C@@H]4CCN5C(=O)CC[C@@H]5C4)c3)[nH]c12 [compound 51] | 20 | 100 | –
7 | CC(=O)N1C2CCC1CN(c1cccc(NC(=O)c3cc4c(F)ccc(C)c4[nH]3)c1)C2 [compound 163] | 30 | 300 | –
8 | Cc1ccc(F)c2cc(C(=O)NC3CCCC(N4CCN5C(=O)COCC5C4)C3)[nH]c12 (stereo not shown) [compound 1067] | 900 | 1200 | –
9 | Cc1cccc2cc(C(=O)N[C@@H](CO)c3ccccc3)[nH]c12 [compound 616] | 105000 | – | > 25000
10 | Cc1ccc(F)c2cc(C(=O)NC3CCCC(N4CCN(C(=O)C(C)C)C(C(F)(F)F)C4)C3)[nH]c12 (stereo not shown) [compound 1171] | 30 | 60 | –
11 | Cc1cccc2cc(C(=O)NCc3ccccc3N3CCN(C)CC3)[nH]c12 [compound 554] | 8700 | > 25000 | –
12 | Cc1ccc(F)c2cc(C(=O)Nc3cccc(N4CCC5(CCCN5C)CC4)c3)[nH]c12 [compound 212] | 20 | 400 | –
13 | Cc1ccc(F)c2cc(C(=O)Nc3cccc(N4CCCC4)c3)[nH]c12 [compound 332] | 200 | 1600 | –
14 | Cc1ccc(F)c2cc(C(=O)Nc3cccc(N4CC5CCN(C)C5C4)c3)[nH]c12 (stereo not shown) [compound 245] | 10 | 600 | –
15 | CCN(C1CCN(C2CCCC(NC(=O)c3cc4c(F)ccc(C)c4[nH]3)C2)C1)S(C)(=O)=O (stereo not shown) [compound 1131] | 6 | 40 | –
16 | Cc1ccc(F)c2cc(C(=O)Nc3cccc(-c4cncn4C)c3)[nH]c12 [compound 197] | 100 | – | 400
17 | CCNC(=O)N1CCN(C2CCCC(NC(=O)c3cc4c(F)ccc(C)c4[nH]3)C2)CC1 (stereo not shown) [compound 949] | 700 | > 2000 | –
18 | Cc1ccc(F)c2cc(C(=O)Nc3cc(F)cc(N4C[C@H]5CCN(C)[C@H]5C4)c3)[nH]c12 [compound 122] | 10 | – | 300
19 | Cc1cccnc1C(NC(=O)c1cc2c(CO)ccc(C)c2[nH]1)C1CC1 (stereo not shown) [compound 606] | > 50000 | > 25000 | –
20 | CC(=O)N1CCN([C@H]2CCC[C@@H](NC(=O)c3cc4c(F)ccc(C)c4[nH]3)C2)C[C@H]1CO [compound 1098] | 30 | – | 300
21 | Cc1ccc(F)c2cc(C(=O)Nc3cc(C4CCN(C)CC4)n[nH]3)[nH]c12 [compound 558] | > 10000 | > 25000 | –
22 | CC(=O)N(C)CCCN1CCCC(NC(=O)c2cc3c(F)ccc(C)c3[nH]2)C1 (stereo not shown) [compound 389] | > 10000 | > 2000 | –
23 | COC(=O)N1CCN(c2cccc(NC(=O)c3cc4c(F)ccc(C)c4[nH]3)c2)CC1 [compound 121] | 50 | 300 | –
24 | Cc1ccc(F)c2cc(C(=O)Nc3cc(F)cc(N4CCCN(C)C(=O)C4)c3)[nH]c12 [compound 183] | 90 | – | 400
25 | Cc1ccc(F)c2cc(C(=O)Nc3cccc(N(C)C4CCN(C)CC4)c3)[nH]c12 [compound 351] | 90 | > 2000 | –
26 | CC(=O)N1CCN([C@@H]2CCC[C@@H](NC(=O)c3cc4c(F)ccc(C)c4[nH]3)C2)C[C@H]1C [compound 931] | 1100 | – | > 2000
